In patent publication US6525022B1, “Receptor specific atrial natriuretic peptides” (Genentech, Inc., priority 1993, dated 2003):
Where two headings read alike, the source gives them in different places. Where a SMILES comes first, the peptide text is derived from it. Bridges are numbered along the chain shown (N, C = ends).

How the values were obtained:
[1] = target: T1, human natriuretic peptide receptor-A expressed in 293 cells (Homo sapiens, UniProt P16066); assay: cGMP production in 293 cells expressing hNPR-A; assay type: cell-based
T1 construct: expressed in transfected cells
T1 sequence (P16066 33-1061): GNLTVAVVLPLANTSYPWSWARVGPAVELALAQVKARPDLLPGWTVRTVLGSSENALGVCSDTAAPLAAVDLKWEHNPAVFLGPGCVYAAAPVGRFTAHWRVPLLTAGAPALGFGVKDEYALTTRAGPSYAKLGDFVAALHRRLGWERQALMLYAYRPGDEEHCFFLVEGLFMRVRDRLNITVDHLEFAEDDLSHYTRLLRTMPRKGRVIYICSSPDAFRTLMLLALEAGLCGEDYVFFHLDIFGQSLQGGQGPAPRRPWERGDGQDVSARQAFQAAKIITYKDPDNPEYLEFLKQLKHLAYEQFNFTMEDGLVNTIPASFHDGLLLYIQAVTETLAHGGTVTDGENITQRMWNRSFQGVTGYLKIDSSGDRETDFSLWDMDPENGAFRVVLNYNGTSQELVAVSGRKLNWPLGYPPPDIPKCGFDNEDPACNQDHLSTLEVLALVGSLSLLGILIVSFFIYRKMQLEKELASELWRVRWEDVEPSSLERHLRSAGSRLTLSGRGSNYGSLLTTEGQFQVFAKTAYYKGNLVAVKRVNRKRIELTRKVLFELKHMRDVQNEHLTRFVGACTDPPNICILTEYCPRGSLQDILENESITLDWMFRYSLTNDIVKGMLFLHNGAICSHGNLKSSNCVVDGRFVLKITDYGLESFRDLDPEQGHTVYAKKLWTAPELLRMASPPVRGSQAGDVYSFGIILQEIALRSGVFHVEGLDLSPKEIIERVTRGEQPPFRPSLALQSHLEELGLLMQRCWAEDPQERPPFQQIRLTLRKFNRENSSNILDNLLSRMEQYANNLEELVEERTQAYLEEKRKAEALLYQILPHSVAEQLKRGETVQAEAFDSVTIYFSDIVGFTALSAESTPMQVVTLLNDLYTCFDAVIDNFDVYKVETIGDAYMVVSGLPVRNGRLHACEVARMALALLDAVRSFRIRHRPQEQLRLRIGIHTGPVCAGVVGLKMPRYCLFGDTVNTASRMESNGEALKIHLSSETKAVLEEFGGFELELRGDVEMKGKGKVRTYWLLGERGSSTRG
Description: Stable 293 cell lines were maintained in glycine free F-12/Dulbecco's minimal essential medium (50/50, v/v) with 10% dialyzed fetal calf serum, 10 mM Hepes, […] of G418 (Geneticin, GIBCO/BRL), pH 7.2, in a humidified incubator at 37° C. with 7% CO2, 93% air. Cells were passaged using 136.8 mM NaCL, 2.6 mM KCl, 7.9 mM Na2HPO4, 1.4 mM KH2PO4, pH 7.2 (PBS) with 0.5 mM EDTA. For concentration-response experiments log phase cultures of 293 cell lines were passaged to 12 well plates at a density of 2.5×10^5 cells/well. After 48 hours cultures were approximately 50% confluent, and were used for stimulation of cGMP production. Peptide treatments were carried out essentially as described by Lowe and Fendly (1992). Briefly, dried peptide aliquots were resuspended in 0.1% (v/v) acetic acid to a stock concentration of 50 μM, and diluted to 1 μM in F-12/Dulbecco's minimal essential medium (50/50, v/v) with 25 mM Hepes, 0.1% (w/v) bovine serum albumin, 0.1 mM isobutylmethylxanthine at pH 7.2 (stimulation medium). Five-fold serial dilutions were prepared in stimulation medium using polypropylene tubes, then prewarmed to 37° C. before use. Cell culture medium was aspirated prior to adding 0.5 ml of stimulation medium plus peptides to monolayer cultures for 10 minutes at 37° C. Reactions were stopped by addition of 0.5 ml of ice cold 12% trichloroacetic acid to give a final volume of 1 ml. Culture plates were frozen on dry ice and stored at −20° C. prior to assay. For cGMP measurements samples were thawed at room temperature, and processed as described by Koller et al., Science 252:120-123 (1991), for cGMP radioimmunoassay (Biomedical Technologies, Inc). All stimulations were performed in triplicate, and samples were measured in duplicate for cGMP by radioimmumoassay. Predicted peptide concentrations were corrected based on quantitative amino acid analysis of duplicate samples from the same set of peptide aliquots used for the stimulation experiments.
Data analysis. The competition binding curves and cGMP production dose responses were analyzed by the four-parameter logistic equation with the KaleidaGraph™ program (Synergy Software, PA) to obtain estimates of the IC50 or EC50 values. The non linear least-squares curve fitting program SCATPLOT was used to analyze the competition binding curves according to a one-site or two-site binding model for competitor. A two-site binding model is reported when the fit to the data was statistically better (p<0.05) than a one-site fit.

[2] = target: human NEP (hNEP), endopeptidase 24.11 (Homo sapiens, UniProt P08473); assay: Degradation of ANF variants by human NEP, half-life by HPLC
[3] = isolated human NEP (endopeptidase 24.11) in HEPES buffer, Half-Life (min.), FIG. 7: ANF variants 32 nM/ml, NEP 0.45 μg/ml

human NEP (hNEP), endopeptidase 24.11, sequence (P08473 whole entry): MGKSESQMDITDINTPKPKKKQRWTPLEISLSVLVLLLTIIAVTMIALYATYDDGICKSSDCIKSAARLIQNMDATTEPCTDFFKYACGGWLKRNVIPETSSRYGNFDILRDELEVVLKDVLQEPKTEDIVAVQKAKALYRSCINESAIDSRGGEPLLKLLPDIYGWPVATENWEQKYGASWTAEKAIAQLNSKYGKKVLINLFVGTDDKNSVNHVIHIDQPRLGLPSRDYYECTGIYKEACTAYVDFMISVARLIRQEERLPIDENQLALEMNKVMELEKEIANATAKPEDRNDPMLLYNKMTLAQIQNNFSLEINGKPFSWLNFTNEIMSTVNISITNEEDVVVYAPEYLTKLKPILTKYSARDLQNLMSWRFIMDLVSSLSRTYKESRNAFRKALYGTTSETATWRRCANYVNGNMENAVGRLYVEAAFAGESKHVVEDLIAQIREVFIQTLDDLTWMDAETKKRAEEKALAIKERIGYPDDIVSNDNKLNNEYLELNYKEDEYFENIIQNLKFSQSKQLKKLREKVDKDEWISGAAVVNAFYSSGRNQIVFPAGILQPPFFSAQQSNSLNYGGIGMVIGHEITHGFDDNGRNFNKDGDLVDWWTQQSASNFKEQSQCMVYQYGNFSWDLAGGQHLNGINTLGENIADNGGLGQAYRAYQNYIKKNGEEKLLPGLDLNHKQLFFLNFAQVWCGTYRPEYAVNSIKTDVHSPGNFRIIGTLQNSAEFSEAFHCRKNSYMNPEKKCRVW

Row | Structure (SMILES) | Potency in cGMP production compared with rat ANP [1] | Stimulation of cGMP production (agonist efficacy) [1] | half-life at 32 nM/ml [2, 3] [h] | half-life at 32 nM/ml [2] [h]
1 | CC[C@H](C)[C@@H]1NC(=O)[C@H](CCCNC(=N)N)NC(=O)[C@H](CC(=O)O)NC(=O)[C@H]([C@@H](C)CC)NC(=O)[C@H](CO)NC(=O)CNC(=O)[C@H]([C@@H](C)O)NC(=O)[C@H](Cc2ccccc2)NC(=O)[C@@H](NC(=O)[C@H](CO)NC(=O)[C@H](CO)NC(=O)[C@H](CCCNC(=N)N)NC(=O)[C@H](CCCNC(=N)N)NC(=O)[C@H](CC(C)C)NC(=O)[C@@H](N)CO)CSSC[C@@H](C(=O)N[C@@H](CC(N)=O)C(=O)N[C@@H](CO)C(=O)N[C@@H](Cc2ccccc2)C(=O)N[C@@H](CCCNC(=N)N)C(=O)N[C@@H](Cc2ccc(O)cc2)C(=O)O)NC(=O)CNC(=O)[C@H](CC(C)C)NC(=O)CNC(=O)[C@H](CO)NC(=O)[C@H](CCC(N)=O)NC(=O)[C@H](C)NC(=O)[C@H](CCCNC(=N)N)NC1=O [ANF 27] | potency very similar to rat ANP | full agonists | 5.57 | –
2 | CC[C@H](C)[C@@H]1NC(=O)[C@H](CCCNC(=N)N)NC(=O)[C@H](CC(=O)O)NC(=O)[C@H]([C@@H](C)CC)NC(=O)[C@H](CO)NC(=O)CNC(=O)[C@H]([C@@H](C)O)NC(=O)[C@H](Cc2ccccc2)NC[C@@H](NC(=O)[C@H](CO)NC(=O)[C@H](CO)NC(=O)[C@H](CCCNC(=N)N)NC(=O)[C@H](CCCNC(=N)N)NC(=O)[C@H](CC(C)C)NC(=O)[C@@H](N)CO)CSSC[C@@H](C(=O)N[C@@H](CC(N)=O)C(=O)N[C@@H](CO)C(=O)N[C@@H](Cc2ccccc2)C(=O)N[C@@H](CCCNC(=N)N)C(=O)N[C@@H](Cc2ccc(O)cc2)C(=O)O)NC(=O)CNC(=O)[C@H](CC(C)C)NC(=O)CNC(=O)[C@H](CO)NC(=O)[C@H](CCC(N)=O)NC(=O)[C@H](C)NC(=O)[C@H](CCCNC(=N)N)NC1=O [ANF 84] | potency very similar to rat ANP | full agonists | 39.9 | –
3 | CC[C@H](C)[C@@H]1NC(=O)[C@H](CCCNC(=N)N)NC(=O)[C@H](CC(=O)O)NC(=O)[C@H]([C@@H](C)CC)NC(=O)[C@H](CO)NC(=O)CNC(=O)[C@H]([C@@H](C)O)NC(=O)[C@H](Cc2ccccc2)NC(=O)[C@@H](NC(=O)[C@H](CO)NC(=O)[C@H](CO)NC(=O)[C@H](CCCNC(=N)N)NC(=O)[C@H](CCCNC(=N)N)NC(=O)[C@H](CC(C)C)NC(=O)[C@H](CO)NC(=O)[C@H](CCCNC(=N)N)NC(=O)[C@@H]2CCCN2C(=O)[C@H](C)NC(=O)[C@@H](N)[C@@H](C)O)CSSC[C@@H](C(=O)N[C@@H](CC(N)=O)C(=O)N[C@@H](CO)C(=O)N[C@@H](Cc2ccccc2)C(=O)N[C@@H](CCCNC(=N)N)C(=O)N[C@@H](Cc2ccc(O)cc2)C(=O)O)NC(=O)CNC(=O)[C@H](CC(C)C)NC(=O)CNC(=O)[C@H](CO)NC(=O)[C@H](CCC(N)=O)NC(=O)[C@H](C)NC(=O)[C@H](CCCNC(=N)N)NC1=O [ANF 76] (H-TAPRSLRRSSCFTGSIDRIRAQSGLGCNSFRY-OH; disulfide 11-27; C-terminus assumed) | potency very similar to rat ANP | full agonists | – | 23.5
